One series deals with adult cat fleas. The series can be described thus: Effect on cat flea (1): glass tube residue contact test, knock-down and mortality. The format is in vivo, cat flea (Ctenocephalides felis). The arrangement: After 3 hours (KD) knocking-down rate: unit not given here. As for the experimental part:
Each compound was dissolved in acetone to a predetermined concentration and 0.1 ml of the resulting solution was dropped into the bottom of a glass tube with a diameter of 2.8 cm and a height of 12 cm and air-dried. After the air-drying, 10 adult cat fleas were placed in the glass tube and the glass tube was closed with nylon mesh and allowed to stand under conditions of a room temperature of 26° C. and a humidity of 80%. The knocked-down (KD) fleas after 3 hours and the dead and alive after 24 hours and 48 hours were counted, and the knocking-down rate and the mortality were calculated. Fipronil was used as a positive control. In a control experiment, no treatment with an agent was carried out.

In a further series the test system is std:ddy strain male mice. Put plainly: Toxicity to mouse, administration into the stomach. The format is in vivo. On the procedure: The compound listed in Table 1 or Fipronil was dissolved in olive oil to a predetermined concentration, and the resulting solution was directly administered into the stomachs of std:ddy strain male mice by the use of a probe. The dose was 30 mg/kg or 100 mg/kg. Whether the mice were alive or dead was observed 3 hours, 1 day, 7 days and 14 days after the administration.

Series [1] has as its system cat fleas parasitic on a cat. The series can be described thus: Effect on cat flea (2): spot-on of 10% liquid drops on flea-infested cat, cumulative fall rate. The format is in vivo, cat flea (Ctenocephalides felis) on cat. As for the experimental part: Fleas that had fallen from the cat body were counted at intervals of 2 hours until 8 hours after the dropping of the solution, and the cumulative fall rate was calculated. In addition, fleas that had fallen in 24 hours were counted and the cumulative fall rate after 1 day was calculated. Two days after the dropping, the living fleas on the cat body were counted by the use of a flea-removing comb.

Where [2] appears, read: 1 mg/tube, 10 adult cat fleas, 26° C., humidity 80%.
[3] abbreviates: 30 mg/kg into the stomach, in olive oil, male mice.

Turning to `FC(F)(F)Sc1cn(-c2c(Cl)cc(C(F)(F)F)cc2Cl)c2ccccc12` [Compound 25, 1-(2,6-dichloro-4-trifluoromethylphenyl)-3-(trifluoromethylthio)indole], the “After 3 hours (KD) knocking-down rate” value with adult cat fleas (0.001 mg/tube) amounted to 0; in the series on adult cat fleas (0.01 mg/tube), 0; in the series with adult cat fleas (0.1 mg/tube), 10; in the series with adult cat fleas (setting [2]), 100. Further, the “After 1 day (mortality)” value in the series with adult cat fleas (0.001 mg/tube) is on record as 0%; with adult cat fleas (0.01 mg/tube), 70%; in the series with adult cat fleas (0.1 mg/tube), 100%; in the series with adult cat fleas (1 mg/tube) it was 90%. For the same compound, the “After 2 days (mortality)” value in the series with adult cat fleas (0.001 mg/tube) is on record as 30%; with adult cat fleas (0.01 mg/tube) it was 100%; with adult cat fleas (0.1 mg/tube), 100%; in the series on adult cat fleas (1 mg/tube) it was 100%. The “Cumulative mortality After 1 day” value in the series with std:ddy strain male mice (30 mg/kg) and in the series with std:ddy strain male mice (100 mg/kg) was 0/5 throughout. Also, the “Cumulative mortality After 7 days” value in the series on std:ddy strain male mice (30 mg/kg) and in the series on std:ddy strain male mice (100 mg/kg) was 0/5 throughout. Further, the “Cumulative mortality After 14 days” value with std:ddy strain male mice (30 mg/kg) and with std:ddy strain male mice (100 mg/kg) was 0/5 throughout. Besides, the “Cumulative mortality After 3 hours” value in the series on std:ddy strain male mice (setting [3]) and in the series with std:ddy strain male mice (100 mg/kg) was 0/5 throughout.

With `Cc1c(SC(F)(Cl)Cl)c2ccccc2n1-c1ncc(C(F)(F)F)cc1Cl` [Compound 14, 1-(3-chloro-5-trifluoromethylpyridin-2-yl)-3-(dichlorofluoromethylthio)-2-methylindole], the “After 3 hours (KD) knocking-down rate” value in the series on adult cat fleas (0.001 mg/tube), in the series with adult cat fleas (0.01 mg/tube), in the series with adult cat fleas (0.1 mg/tube) and in the series with adult cat fleas (setting [2]) was 0 in each case. The “After 1 day (mortality)” value with adult cat fleas (0.001 mg/tube) is recorded as 20%; with adult cat fleas (0.01 mg/tube), 50%; in the series on adult cat fleas (0.1 mg/tube), 100%; in the series on adult cat fleas (1 mg/tube), 100%. Further, the “After 2 days (mortality)” value with adult cat fleas (0.001 mg/tube) turned out to be 30%; in the series with adult cat fleas (0.01 mg/tube) it was 100%; in the series with adult cat fleas (0.1 mg/tube), 100%; in the series with adult cat fleas (1 mg/tube) it was 100%. For the same compound, the “Cumulative mortality After 1 day” value in the series on std:ddy strain male mice (30 mg/kg) and in the series with std:ddy strain male mice (100 mg/kg) was 0/5 throughout. Also, the “Cumulative mortality After 7 days” value in the series with std:ddy strain male mice (30 mg/kg) and with std:ddy strain male mice (100 mg/kg) was 0/5 in each case. Moreover, the “Cumulative mortality After 14 days” value in the series on std:ddy strain male mice (30 mg/kg) and in the series on std:ddy strain male mice (100 mg/kg) was 0/5 each time. Besides, the “Cumulative mortality After 3 hours” value in the series with std:ddy strain male mice (setting [3]) and in the series on std:ddy strain male mice (100 mg/kg) was 0/5 throughout.

For `FC(Cl)(Cl)Sc1cn(-c2ncc(C(F)(F)F)cc2Cl)c2ccccc12` [Compound 1, 1-(3-chloro-5-trifluoromethylpyridin-2-yl)-3-(dichlorofluoromethyl-thio)indole], the “After 3 hours (KD) knocking-down rate” value in the series on adult cat fleas (0.001 mg/tube) worked out at 0; in the series on adult cat fleas (0.01 mg/tube), 0; in the series on adult cat fleas (0.1 mg/tube) it was 0; with adult cat fleas (setting [2]) it was 80. Also, the “After 1 day (mortality)” value with adult cat fleas (0.001 mg/tube) is reported as 10%; in the series on adult cat fleas (0.01 mg/tube) it was 70%; with adult cat fleas (0.1 mg/tube), 100%; in the series on adult cat fleas (1 mg/tube), 100%. Also, the “After 2 days (mortality)” value in the series on adult cat fleas (0.001 mg/tube) stood at 40%; with adult cat fleas (0.01 mg/tube), 100%; in the series with adult cat fleas (0.1 mg/tube), 100%; in the series on adult cat fleas (1 mg/tube), 100%.

On to `FC(Cl)(Cl)Sc1cn(-c2ncc(C(F)(F)F)cc2Cl)c2ccc(Cl)cc12` [Compound 3], for which the “After 3 hours (KD) knocking-down rate” value in the series on adult cat fleas (0.001 mg/tube), with adult cat fleas (0.01 mg/tube), in the series with adult cat fleas (0.1 mg/tube) and in the series on adult cat fleas (setting [2]) was 0 in each case. The “After 1 day (mortality)” value in the series with adult cat fleas (0.001 mg/tube) came to 20%; with adult cat fleas (0.01 mg/tube) it was 10%; with adult cat fleas (0.1 mg/tube) it was 40%; in the series with adult cat fleas (1 mg/tube), 50%. The “After 2 days (mortality)” value was 20% with adult cat fleas (0.001 mg/tube), 20% in the series on adult cat fleas (0.01 mg/tube), 70% in the series on adult cat fleas (0.1 mg/tube) and 90% in the series on adult cat fleas (1 mg/tube).

As for `Fc1ccc2c(c1)c(SC(F)(Cl)Cl)cn2-c1ncc(C(F)(F)F)cc1Cl` [Compound 2, 1-(3-chloro-5-trifluoromethylpyridin-2-yl)-3-(dichlorofluoromethylthio)-5-fluoroindole], the “After 3 hours (KD) knocking-down rate” value in the series on adult cat fleas (0.001 mg/tube), in the series with adult cat fleas (0.01 mg/tube), in the series with adult cat fleas (0.1 mg/tube) and with adult cat fleas (setting [2]) was 0 in each case. Further, the “After 1 day (mortality)” value in the series on adult cat fleas (0.001 mg/tube) is 0%; with adult cat fleas (0.01 mg/tube) it was 10%; in the series on adult cat fleas (0.1 mg/tube) it was 100%; in the series on adult cat fleas (1 mg/tube), 100%. Further, the “After 2 days (mortality)” value in the series with adult cat fleas (0.001 mg/tube) came out at 0%; with adult cat fleas (0.01 mg/tube), 50%; with adult cat fleas (0.1 mg/tube) it was 100%; in the series with adult cat fleas (1 mg/tube), 100%.

Consider `FC(Cl)(Cl)Sc1cn(-c2c(Cl)cc(C(F)(F)F)cc2Cl)c2ccc(Cl)cc12` [Compound 19], for which the “After 3 hours (KD) knocking-down rate” value in the series with adult cat fleas (0.01 mg/tube), in the series on adult cat fleas (0.1 mg/tube) and in the series on adult cat fleas (setting [2]) was 0 throughout. The “After 1 day (mortality)” value in the series with adult cat fleas (0.01 mg/tube) was 30%; with adult cat fleas (0.1 mg/tube), 60%; in the series with adult cat fleas (1 mg/tube), 100%. Besides, the “After 2 days (mortality)” value amounted to 90% in the series with adult cat fleas (0.01 mg/tube), 100% in the series on adult cat fleas (0.1 mg/tube) and 100% with adult cat fleas (1 mg/tube).

`O=S(=O)(c1cn(-c2c(Cl)cc(C(F)(F)F)cc2Cl)c2ccccc12)C(F)(Cl)Cl` [Compound 32]: the “After 3 hours (KD) knocking-down rate” value with adult cat fleas (0.001 mg/tube), with adult cat fleas (0.01 mg/tube), with adult cat fleas (0.1 mg/tube) and in the series with adult cat fleas (setting [2]) was 0 each time. For the same compound, the “After 1 day (mortality)” value with adult cat fleas (0.001 mg/tube) is reported as 0%; with adult cat fleas (0.01 mg/tube), 0%; in the series on adult cat fleas (0.1 mg/tube), 30%; with adult cat fleas (1 mg/tube), 100%. In addition, the “After 2 days (mortality)” value is listed as 0% in the series with adult cat fleas (0.001 mg/tube), 20% in the series with adult cat fleas (0.01 mg/tube), 100% with adult cat fleas (0.1 mg/tube) and 100% in the series on adult cat fleas (1 mg/tube).

Regarding `N#Cc1nn(-c2c(Cl)cc(C(F)(F)F)cc2Cl)c(N)c1[S+]([O-])C(F)(F)F` (stereo not drawn) [Fipronil, 5-amino-1-(2,6-dichloro-4-(trifluoromethyl)phenyl)-4-((trifluoromethyl)sulfinyl)-1H-pyrazole-3-carbonitrile, reference compound], the “After 3 hours (KD) knocking-down rate” value with adult cat fleas (0.001 mg/tube), in the series on adult cat fleas (0.01 mg/tube), with adult cat fleas (0.1 mg/tube) and in the series with adult cat fleas (setting [2]) was 0 each time. Also, the “After 1 day (mortality)” value in the series on adult cat fleas (0.001 mg/tube) is on record as 20%; in the series on adult cat fleas (0.01 mg/tube) it was 20%; in the series with adult cat fleas (0.1 mg/tube) it was 100%; with adult cat fleas (1 mg/tube) it was 100%. Further, the “After 2 days (mortality)” value was determined as 20% in the series on adult cat fleas (0.001 mg/tube), 90% in the series with adult cat fleas (0.01 mg/tube), 100% with adult cat fleas (0.1 mg/tube) and 100% with adult cat fleas (1 mg/tube). In addition, the “Cumulative fall rate (%) After 4 hours” value in series [1] (0.5 ml of 10% solution spot-on, after 4 hours) was 3%. For the same compound, the “Cumulative fall rate (%) After 6 hours” value in series [1] (0.5 ml of 10% solution spot-on, after 6 hours) amounted to 20%. Moreover, the “Cumulative fall rate (%) After 8 hours” value in series [1] (0.5 ml of 10% solution spot-on, after 8 hours) is recorded as 27%. Moreover, in series [1] (0.5 ml of 10% solution spot-on, after 24 hours), the “Cumulative fall rate (%) After 24 hours” value came to 90%. For the same compound, the “Dead fleas found on the body of the cat” value in series [1] (24 hours after the dropping, 0.5 ml of 10% solution) is “three”. The “Cumulative fall rate (%) After 2 hours” value in series [1] (cat with 30 cat fleas, 0.5 ml of 10% solution spot-on, after 2 hours) turned out to be 0%. For the same compound, the figures for the “Cumulative mortality After 1 day” value with std:ddy strain male mice (30 mg/kg) and with std:ddy strain male mice (100 mg/kg) were 1/5 and 5/5, respectively. Besides, the “Cumulative mortality After 7 days” value in the series with std:ddy strain male mice (30 mg/kg) is on record as 1/5; in the series with std:ddy strain male mice (100 mg/kg) it was 5/5. Besides, the entries for the “Cumulative mortality After 14 days” value with std:ddy strain male mice (30 mg/kg) and in the series with std:ddy strain male mice (100 mg/kg) were 1/5 and 5/5, respectively. The “Cumulative mortality After 3 hours” value was 0/5 with std:ddy strain male mice (setting [3]) and 1/5 in the series on std:ddy strain male mice (100 mg/kg).
